In brackets after ≈: the same amount, converted by molar mass. Read-outs that look alike come from different tables or passages of the source.
Columns and labels:
[1] = system: S. aureus ATCC29213; assay: Fluorescent competition assay, release of fluorescent vancomycin; details: cells saturated with FL-VAN, Fig. 7 left panel
[2] = target: T1, human recombinant cathepsin L (Homo sapiens, UniProt P07711); assay: biochemical; assay type: biochemical
T1 construct: made in house; host or cells: Escherichia coli

[3] = system: S. aureus; assay: MIC, broth microdilution; assay type: cell-based; details: Staphylococcus aureus
[4] = system: S.pyogenes; assay: MIC, broth microdilution; assay type: cell-based; details: Streptococcus pyogenes
[5] = system: S. haemolyticus; assay: MIC, broth microdilution; assay type: cell-based; details: Staphylococcus haemolyticus
[6] = system: E. faecalis; assay: MIC, broth microdilution; assay type: cell-based; details: Enterococcus faecalis
[7] = system: HCoV-229E; assay: CPE reduction assay, HCoV-229E in HEL cells; assay type: cell-based
[8] = system: S. aureus ATCC29213; assay: Fluorescent competition assay, release of fluorescent teicoplanin; assay type: binding; details: cells saturated with FL-TEI, Fig. 7 right panel
[9] = system: Calu-3 cells; assay: Cytotoxicity in mock-infected Calu-3 cells (XTT); details: read-out: CC50, Calu-3 cells, three days
[10] = system: E. faecium; assay: microbe, parasite or virus in culture; assay type: cell-based; details: for MIC: Enterococcus faecium
[11] = system: S. epidermidis; assay: microbe, parasite or virus in culture; assay type: cell-based; details: Staphylococcus epidermidis
[12] = system: Acinetobacter baumannii ATCC BAA1605; assay: MIC against Gram-negative strain; details: Acinetobacter baumannii, ATCCBAA1605
[13] = system: VeroE6 cells; assay: Cytotoxicity in mock-infected VeroE6 cells (XTT); assay type: cell-based, African green monkey; details: mock-infected Vero E6 cells, three days, XTT
[14] = system: Klebsiella pneumoniae ST258 clone K 160/09; assay: MIC against Gram-negative strain; details: Klebsiella pneumoniae
[15] = system: HEL cells; assay: Cytotoxicity in mock-infected HEL cells (MTS); assay type: cell-based, human; details: mock-infected HEL cells, MTS, mean of 2–3 tests
[16] = system: Pseudomonas aeruginosa ATCC 27853; assay: MIC against Gram-negative strain; details: ATCC27853
[17] = system: SARS-CoV-2 pseudovirus; assay: microbe, parasite or virus in culture; assay type: cell-based; details: cathepsin-dependent endosomal pathway
[18] = system: Escherichia coli ATCC 25218; assay: MIC against Gram-negative strain; details: ATCC25218

T1 sequence (P07711 114-333): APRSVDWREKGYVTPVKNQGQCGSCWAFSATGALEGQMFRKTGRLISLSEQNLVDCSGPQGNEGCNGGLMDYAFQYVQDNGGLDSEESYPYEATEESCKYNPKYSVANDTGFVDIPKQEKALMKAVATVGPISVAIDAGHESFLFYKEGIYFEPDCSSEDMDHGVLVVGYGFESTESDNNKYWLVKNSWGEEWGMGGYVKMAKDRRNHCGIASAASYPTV

For `CC(=O)N[C@H]1[C@H](O[C@@H]2c3ccc(c(Cl)c3)Oc3cc4cc(c3O)Oc3ccc(cc3Cl)C[C@H]3NC(=O)[C@H](NC(=N)N)c5ccc(O)c(c5)Oc5cc(O)cc(c5)[C@H](NC3=O)C(=O)N[C@H]4C(=O)N[C@H]3C(=O)N[C@@H]2C(=O)N[C@H](C(=O)O)c2cc(O)cc(O)c2-c2cc3ccc2O)O[C@H](CO)[C@@H](O)[C@@H]1O` [Compound 6], the “Outcompeting fluorescent vancomycin from S. aureus (in words)” value [1] was “highly effective at outcompeting fluorescent vancomycin”, the “Cathepsin L inhibition (in words)” value [2] was “did not prove to be an inhibitor” and the IC50 ([2]; read-out: Cathepsin L IC50, pH 5.5, Z-Phe-Arg-AMC substrate) was > 500 µM. For the same molecule, the MIC ([3]; ATCC 29213 / MSSA, read-out: MIC value, S. aureus ATCC29213, MSSA) was 0.25 µg/mL (≈ 0.173 µM), the MIC ([3]; MRSA / USA300, read-out: MIC value, S. aureus USA300, CA-MRSA) was 0.125 µg/mL (≈ 0.0866 µM) and the MIC ([3]; MRSA, read-out: Average MIC value, S. aureus CA-MRSA, 1 strain) was 0.125 µg/mL (≈ 0.0866 µM). For the same molecule, the MIC ([3]; MRSA, read-out: Average MIC value, S. aureus MRSA, 7 strains) was 0.125 µg/mL (≈ 0.0866 µM), the MIC ([3]; MRSA, read-out: MIC value, S. aureus 73OL, MRSA) was 0.125 µg/mL (≈ 0.0866 µM) and the MIC ([3]; MRSA, read-out: MIC value, S. aureus 214OL, MRSA) was 0.125 µg/mL (≈ 0.0866 µM). For the same molecule, the MIC ([3]; MRSA, read-out: MIC value, S. aureus 1041OL, MRSA) was 0.125 µg/mL (≈ 0.0866 µM), the MIC ([3]; MRSA, read-out: MIC value, S. aureus A6918, MRSA) was 0.125 µg/mL (≈ 0.0866 µM) and the MIC ([3]; MRSA, read-out: MIC value, S. aureus A6919, MRSA) was 0.125 µg/mL (≈ 0.0866 µM). The MIC ([3]; MRSA, read-out: MIC value, S. aureus Mu50, MRSA) was 0.125 µg/mL (≈ 0.0866 µM), the MIC ([3]; MRSA, read-out: MIC value, S. aureus N315, MRSA) was 0.125 µg/mL (≈ 0.0866 µM) and the MIC ([3]; MSSA / NEWMAN, read-out: MIC value, S. aureus Newman, MSSA) was 0.25 µg/mL (≈ 0.173 µM). It also gave an MIC ([3]; MSSA, read-out: Average MIC value, S. aureus MSSA, 4 strains) of 0.188 µg/mL (≈ 0.13 µM), an MIC ([3]; MSSA, read-out: MIC value, S. aureus MSSA476, MSSA) of 0.125 µg/mL (≈ 0.0866 µM) and an MIC ([3]; MSSA, read-out: MIC value, S. aureus SA564, MSSA) of 0.125 µg/mL (≈ 0.0866 µM). The MIC ([4]; read-out: MIC value, S.pyogenes H232) was 0.125 µg/mL (≈ 0.0866 µM), the MIC ([4]; read-out: MIC value, S.pyogenes H550) was 0.125 µg/mL (≈ 0.0866 µM) and the MIC ([4]; read-out: MIC value, S.pyogenes H578) was 0.125 µg/mL (≈ 0.0866 µM). For the same molecule, the MIC ([5]; S. haemolyticus mecA, 6 strains, read-out: Average MIC value) was 0.27 µg/mL (≈ 0.187 µM), the MIC ([5]; S.haemolyticus DALB_R1, mecA, read-out: MIC value) was 0.5 µg/mL (≈ 0.346 µM) and the MIC ([5]; S.haemolyticus DALB_R2, mecA, read-out: MIC value) was 0.25 µg/mL (≈ 0.173 µM). The MIC ([5]; S.haemolyticus DALB_R3, mecA, read-out: MIC value) was 0.25 µg/mL (≈ 0.173 µM), the MIC ([5]; S.haemolyticus DALB_R4, mecA, read-out: MIC value) was 0.125 µg/mL (≈ 0.0866 µM) and the MIC ([5]; S.haemolyticus DALB_R5, mecA, read-out: MIC value) was 0.25 µg/mL (≈ 0.173 µM). The MIC ([5]; S.haemolyticus ORI_R1, mecA, read-out: MIC value) was 0.25 µg/mL (≈ 0.173 µM), the MIC ([6]; read-out: Average MIC value, E. faecalis VAN^R,TEI^R/VanA, 1 strain) was 0.125 µg/mL (≈ 0.0866 µM) and the MIC ([6]; read-out: Average MIC value, E. faecalis VAN^S, TEI^S, 2 strains) was 0.125 µg/mL (≈ 0.0866 µM). For the same molecule, the MIC ([6]; read-out: MIC value, E.faecalis JH2-2) was 0.125 µg/mL (≈ 0.0866 µM), the MIC ([6]; read-out: MIC value, E.faecalis OG1RF) was 0.125 µg/mL (≈ 0.0866 µM) and the MIC ([6]; read-out: MIC value, E.faecalis V583, VAN,TEI/VanA) was 0.125 µg/mL (≈ 0.0866 µM). For the same molecule, the “Activity against HCoV-229E CPE (in words)” value [7] was “only modest activity”, the “Outcompeting fluorescent teicoplanin from S. aureus (in words)” value [8] was “the most active competitor” and the CC50 [9] was > 100 µM. The MIC ([10]; read-out: Average MIC value, E. faecium VAN^R,TEI^R/VanA, 8 strains) was 0.156 µg/mL (≈ 0.108 µM), the MIC ([10]; read-out: Average MIC value, E. faecium VAN^S, TEI^S, 1 strain) was 0.0625 µg/mL (≈ 0.0433 µM) and the MIC ([10]; read-out: MIC value, E.faecium E335, VAN,TEI,LNZ/VanA) was 0.125 µg/mL (≈ 0.0866 µM). The MIC ([10]; read-out: MIC value, E.faecium E355, VAN,TEI,LNZ/VanA) was 0.125 µg/mL (≈ 0.0866 µM), the MIC ([10]; read-out: MIC value, E.faecium E832, VAN,TEI,LNZ/VanA) was 0.125 µg/mL (≈ 0.0866 µM) and the MIC ([10]; read-out: MIC value, E.faecium E854, VAN,TEI,LNZ/VanA) was 0.125 µg/mL (≈ 0.0866 µM). For the same molecule, the MIC ([10]; read-out: MIC value, E.faecium E859, VAN,TEI,LNZ/VanA) was 0.125 µg/mL (≈ 0.0866 µM), the MIC ([10]; read-out: MIC value, E.faecium E1114, VAN,TEI,LNZ/VanA) was 0.5 µg/mL (≈ 0.346 µM) and the MIC ([10]; read-out: MIC value, E.faecium E1131, VAN,TEI,LNZ/VanA) was 0.0625 µg/mL (≈ 0.0433 µM). For the same molecule, the MIC ([10]; read-out: MIC value, E.faecium E1132, VAN,TEI,LNZ/VanA) was 0.0625 µg/mL (≈ 0.0433 µM), the MIC ([10]; read-out: MIC value, E.faecium TX0016) was 0.0625 µg/mL (≈ 0.0433 µM) and the “Activity against E. faecium strains expressing the VanA resistance phenotype (in words)” value ([10]; VanA phenotype) was “strong activity”. For the same molecule, the MIC ([11]; read-out: Average MIC value, S. epidermidis mecA, 6 strains) was 0.1 µg/mL (≈ 0.0692 µM), the MIC ([11]; read-out: MIC value, S.epidermidis ORI_R1, mecA) was 0.0625 µg/mL (≈ 0.0433 µM) and the MIC ([11]; read-out: MIC value, S.epidermidis ORI_R2, mecA) was 0.125 µg/mL (≈ 0.0866 µM). The MIC ([11]; read-out: MIC value, S.epidermidis ORI_R3, mecA) was 0.0625 µg/mL (≈ 0.0433 µM), the MIC ([11]; read-out: MIC value, S.epidermidis ORI_R4, mecA) was 0.0625 µg/mL (≈ 0.0433 µM) and the MIC ([11]; read-out: MIC value, S.epidermidis TEI_R1, mecA) was 0.0625 µg/mL (≈ 0.0433 µM). For the same molecule, the MIC ([11]; read-out: MIC value, S.epidermidis TEI_R2, mecA) was 0.25 µg/mL (≈ 0.173 µM), the MIC [12] was 128 µg/mL (≈ 88.6 µM) and the CC50 [13] was > 100 µM. The MIC [14] was 128 µg/mL (≈ 88.6 µM), the CC50 [15] was > 100 µM and the MIC [16] was 256 µg/mL (≈ 177 µM). For the same molecule, the “Inhibition of pseudovirus entry in Vero cells (in words)” value [17] was “moderately active” and the MIC [18] was 128 µg/mL (≈ 88.6 µM).
